US12122761B2, “2-azaspiro[3.4]octane derivatives as M4 agonists” (NOVARTIS AG, priority 2019, dated 2024)
pEC50: −log10 of the molar value.

Experiments:
Format in all cases: cell-based
[1] = target: T1, human cloned CHRM5 receptor (M5_CHO) (Homo sapiens, UniProt P08912); assay: CHRM5 Ca++ Flux Assay (agonist mode, FDSS 7000EX); conditions: for Emax / M5 FDSS PA: Percent Activity measured to EC100 of Carbachol; for Emax: read-out: M5 FDSS PA; for pEC50: agonist mode, geometric mean if tested more than once, read-out: M5 FDSS EC50
T1 construct: expressed in transfected cells; host or cells: CHO (M5_CHO)
T1 sequence (P08912 1-532): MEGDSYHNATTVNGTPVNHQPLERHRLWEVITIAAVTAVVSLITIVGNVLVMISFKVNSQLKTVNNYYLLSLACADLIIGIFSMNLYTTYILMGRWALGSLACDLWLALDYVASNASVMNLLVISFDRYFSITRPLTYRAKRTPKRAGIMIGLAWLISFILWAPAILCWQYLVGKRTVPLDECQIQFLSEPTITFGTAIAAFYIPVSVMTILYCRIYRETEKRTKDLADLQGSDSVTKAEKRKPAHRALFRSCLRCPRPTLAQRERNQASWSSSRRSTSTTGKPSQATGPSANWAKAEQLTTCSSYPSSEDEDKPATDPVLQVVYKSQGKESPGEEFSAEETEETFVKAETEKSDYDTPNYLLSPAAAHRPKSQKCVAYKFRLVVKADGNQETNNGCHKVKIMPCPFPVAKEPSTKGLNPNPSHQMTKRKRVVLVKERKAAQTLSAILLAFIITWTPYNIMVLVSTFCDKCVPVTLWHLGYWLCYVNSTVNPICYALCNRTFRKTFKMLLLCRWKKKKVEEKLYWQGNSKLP
Outline: (§1)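 Fluorescent intracellular Ca++ signal, recorded for 3 min, served as read-out for CHO-K1 cells stably carrying human M3 or M5 receptor. Triplicate 11-point dose responses were averaged and fitted to a four-parameter model, with percent activity referenced to the carbachol EC100.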

[2] = target: T2, Cloned human M1 receptor (CHRM1) stably expressed in HEK293 cells (Homo sapiens, UniProt P11229); assay: CHRM1 Ca++ Flux Assay (agonist mode, FDSS 7000EX); conditions: for Emax: HEK293, Percent Activity, read-out: M1 FDSS PA; for pEC50: geometric mean if tested more than once; for M1 FDSS PA: Percent Activity
T2 construct: expressed in transfected cells; host or cells: HEK293
T2 sequence (P11229 1-460): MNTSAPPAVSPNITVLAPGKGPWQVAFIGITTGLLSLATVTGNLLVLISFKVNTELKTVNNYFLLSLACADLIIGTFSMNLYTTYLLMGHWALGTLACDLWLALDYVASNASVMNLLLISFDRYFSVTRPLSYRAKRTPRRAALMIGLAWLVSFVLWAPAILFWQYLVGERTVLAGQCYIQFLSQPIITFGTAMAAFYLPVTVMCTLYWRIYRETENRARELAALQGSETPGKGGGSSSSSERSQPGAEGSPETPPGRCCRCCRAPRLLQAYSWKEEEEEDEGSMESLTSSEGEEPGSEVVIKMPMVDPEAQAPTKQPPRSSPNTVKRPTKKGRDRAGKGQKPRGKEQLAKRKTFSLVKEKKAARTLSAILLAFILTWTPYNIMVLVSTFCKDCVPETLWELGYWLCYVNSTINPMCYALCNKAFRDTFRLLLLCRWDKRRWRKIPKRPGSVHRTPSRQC
Outline: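 Compounds tested as agonists at 11 concentrations in triplicate, with calcium traces captured over 3 minutes. Cells were HEK293 with stable human CHRM1 expression, plated overnight at 25K/well and loaded with calcium dye. Responses normalized to carbachol EC100 and fitted by four-parameter nonlinear regression.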

[3] = target: T3, human cloned CHRM3 receptor (M3_CHO cells) (Homo sapiens, UniProt P20309); assay: CHRM3 Ca++ Flux Assay (agonist mode, FDSS 7000EX); conditions: for Emax / M3 FDSS PA: Percent Activity measured to EC100 of Carbachol; for Emax: read-out: M3 FDSS PA; for pEC50: agonist mode, geometric mean if tested more than once, read-out: M3 FDSS EC50
T3 construct: expressed in transfected cells; host or cells: CHO-K1
T3 sequence (P20309 whole entry): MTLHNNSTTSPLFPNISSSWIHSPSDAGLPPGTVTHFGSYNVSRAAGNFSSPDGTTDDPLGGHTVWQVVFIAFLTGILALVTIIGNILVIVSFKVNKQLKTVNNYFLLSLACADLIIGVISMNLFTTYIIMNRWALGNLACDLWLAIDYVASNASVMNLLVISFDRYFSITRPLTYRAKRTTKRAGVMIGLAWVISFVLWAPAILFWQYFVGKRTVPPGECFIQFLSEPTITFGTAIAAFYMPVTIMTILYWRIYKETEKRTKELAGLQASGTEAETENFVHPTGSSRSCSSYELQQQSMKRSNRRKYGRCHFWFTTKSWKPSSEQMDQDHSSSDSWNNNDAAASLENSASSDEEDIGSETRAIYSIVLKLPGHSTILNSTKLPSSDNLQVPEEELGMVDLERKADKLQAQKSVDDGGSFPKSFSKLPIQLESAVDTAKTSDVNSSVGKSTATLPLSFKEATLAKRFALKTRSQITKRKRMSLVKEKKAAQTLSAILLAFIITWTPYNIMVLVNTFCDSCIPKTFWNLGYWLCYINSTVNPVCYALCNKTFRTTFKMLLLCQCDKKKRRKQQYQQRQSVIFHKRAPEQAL
Outline: as §1

| Emax [1] | pEC50 [1] | Emax [2] | pEC50 [2] | Emax [3] | pEC50 [3] | M5 FDSS PA [1] | M1 FDSS PA [2] | M3 FDSS PA [3] | SMILES |
| --- | --- | --- | --- | --- | --- | --- | --- | --- | --- |
| 0% | < 4.60 | 45% | 5.98 | 0% | < 4.60 | – | – | – | COc1ccccc1C1CCN([C@@H]2CCC3(C2)CN(c2ccnnc2)C3)CC1 [Example 5S, (R)-6-(4-(2-methoxyphenyl)piperidin-1-yl)-2-(pyridazin-4-yl)-2-azaspiro[3.4]octane] |
| – | < 4.60 | – | 5.75 | – | < 4.60 | 0% | 23% | 0% | O=C(N1CC2(CC[C@@H](N3CCC(c4cc(F)ccc4OC4CCOCC4)CC3)C2)C1)C1(F)CC1 (single isomer, unassigned) [Example 9D, (R)-(6-(4-(5-fluoro-2-((tetrahydro-2H-pyran-4-yl)oxy)phenyl)piperidin-1-yl)-2-azaspiro[3.4]octan-2-yl)(1-fluorocyclopropyl)methanone or (S)-(6-(4-(5-fluoro-2-((tetrahydro-2H-pyran-4-yl)oxy)phenyl)piperidin-1-yl)-2-azaspiro[3.4]octan-2-yl)(1-fluorocyclopropyl)methanone] |
| – | 4.85 | – | 7.70 | – | < 4.60 | 0% | 66% | 0% | COc1ccccc1C1CCN([C@H]2CCC3(C2)CN(c2ncco2)C3)CC1 (single isomer, unassigned) [Example 10J, (S)-2-(6-(4-(2-methoxyphenyl)piperidin-1-yl)-2-azaspiro[3.4]octan-2-yl)oxazole or (R)-2-(6-(4-(2-methoxyphenyl)piperidin-1-yl)-2-azaspiro[3.4]octan-2-yl)oxazole] |
| – | < 4.60 | – | 7.36 | – | < 4.60 | 0% | 83% | 0% | FC(F)Oc1ccccc1C1CCN([C@@H]2CCC3(C2)CN(c2nncs2)C3)CC1 (single isomer, unassigned) [Example 10O, (R)-2-(6-(4-(2-(difluoromethoxy)phenyl)piperidin-1-yl)-2-azaspiro[3.4]octan-2-yl)-1,3,4-thiadiazole or (S)-2-(6-(4-(2-(difluoromethoxy)phenyl)piperidin-1-yl)-2-azaspiro[3.4]octan-2-yl)-1,3,4-thiadiazole] |
| – | < 4.60 | – | 7.03 | – | < 4.60 | 0% | 65% | 0% | FC(F)(F)Oc1ccccc1C1CCN([C@@H]2CCC3(C2)CN(c2ncco2)C3)CC1 (single isomer, unassigned) [Example 10K, (R)-2-(6-(4-(2-(trifluoromethoxy)phenyl)piperidin-1-yl)-2-azaspiro[3.4]octan-2-yl)oxazole or (S)-2-(6-(4-(2-(trifluoromethoxy)phenyl)piperidin-1-yl)-2-azaspiro[3.4]octan-2-yl)oxazole] |
| – | < 4.60 | – | 7.44 | – | < 4.60 | 0% | 58% | −1% | O=C(N1CC2(CC[C@@H](N3CCC(c4cc(F)ccc4C4CCOCC4)CC3)C2)C1)C1(F)CC1 (single isomer, unassigned) [Example 9K, (R)-(6-(4-(5-fluoro-2-(tetrahydro-2H-pyran-4-yl)phenyl)piperidin-1-yl)-2-azaspiro[3.4]octan-2-yl)(1-fluorocyclopropyl)methanone or (S)-(6-(4-(5-fluoro-2-(tetrahydro-2H-pyran-4-yl)phenyl)piperidin-1-yl)-2-azaspiro[3.4]octan-2-yl)(1-fluorocyclopropyl)methanone] |
| – | < 4.60 | – | 5.36 | – | < 4.60 | 0% | 32% | 0% | O=C(N1CC2(CC[C@@H](N3CCC(c4ccccc4OCC4CC4)CC3)C2)C1)C1(F)CC1 (single isomer, unassigned) [Example 7T, (R)-(6-(4-(2-(cyclopropylmethoxy)phenyl)piperidin-1-yl)-2-azaspiro[3.4]octan-2-yl)(1-fluorocyclopropyl)methanone or (R)-(6-(4-(2-(cyclopropylmethoxy)phenyl)piperidin-1-yl)-2-azaspiro[3.4]octan-2-yl)(1-fluorocyclopropyl)methanone] |
| – | < 4.60 | – | 5.58 | – | < 4.60 | 0% | 43% | 0% | O=C(N1CC2(CC[C@@H](N3CCC(c4ccccc4OC(F)(F)F)CC3)C2)C1)C1(F)CC1 (single isomer, unassigned) [Example 9A, (R)-(1-fluorocyclopropyl)(6-(4-(2-(trifluoromethoxy)phenyl)piperidin-1-yl)-2-azaspiro[3.4]octan-2-yl)methanone or (S)-(1-fluorocyclopropyl)(6-(4-(2-(trifluoromethoxy)phenyl)piperidin-1-yl)-2-azaspiro[3.4]octan-2-yl)methanone] |
| – | < 4.60 | – | 5.88 | – | < 4.60 | 0% | 34% | 0% | Fc1cncc(N2CC3(CC[C@@H](N4CCC(c5cc(F)ccc5OC5CCOCC5)CC4)C3)C2)c1 (single isomer, unassigned) [Example 10A, (R)-6-(4-(5-fluoro-2-((tetrahydro-2H-pyran-4-yl)oxy)phenyl)piperidin-1-yl)-2-(5-fluoropyridin-3-yl)-2-azaspiro[3.4]octane or (S)-6-(4-(5-fluoro-2-((tetrahydro-2H-pyran-4-yl)oxy)phenyl)piperidin-1-yl)-2-(5-fluoropyridin-3-yl)-2-azaspiro[3.4]octane] |
| – | < 4.60 | – | 7.20 | – | < 4.60 | 0% | 64% | 0% | Fc1ccc(OC2CCOCC2)c(C2CCN([C@@H]3CCC4(C3)CN(c3cncnc3)C4)CC2)c1 (single isomer, unassigned) [Example 10G, (R)-6-(4-(5-fluoro-2-((tetrahydro-2H-pyran-4-yl)oxy)phenyl)piperidin-1-yl)-2-(pyrimidin-5-yl)-2-azaspiro[3.4]octane or (S)-6-(4-(5-fluoro-2-((tetrahydro-2H-pyran-4-yl)oxy)phenyl)piperidin-1-yl)-2-(pyrimidin-5-yl)-2-azaspiro[3.4]octane] |
| – | < 4.60 | – | 5.85 | – | < 4.60 | 0% | 55% | 0% | Fc1ccc(C2CCOCC2)c(C2CCN([C@@H]3CCC4(C3)CN(c3cncnc3)C4)CC2)c1 (single isomer, unassigned) [Example 10D, (R)-6-(4-(5-fluoro-2-(tetrahydro-2H-pyran-4-yl)phenyl)piperidin-1-yl)-2-(pyrimidin-5-yl)-2-azaspiro[3.4]octane or (S)-6-(4-(5-fluoro-2-(tetrahydro-2H-pyran-4-yl)phenyl)piperidin-1-yl)-2-(pyrimidin-5-yl)-2-azaspiro[3.4]octane] |
| 0% | < 4.60 | 55% | 6.57 | 0% | < 4.60 | – | – | – | COc1ccccc1C1CCN([C@@H]2CCC3(C2)CN(c2nccnc2C(F)(F)F)C3)CC1 [Example 5I, (R)-6-(4-(2-methoxyphenyl)piperidin-1-yl)-2-(3-(trifluoromethyl)pyrazin-2-yl)-2-azaspiro[3.4]octane] |
| 17% | 4.84 | 0% | < 4.60 | 0% | 4.93 | – | – | – | Cc1ccc(N2CC3(CC[C@@H](N4CCC(c5ccccc5O[C@@H]5CCOC5)CC4)C3)C2)cn1 [Example 5L, (R)-2-(6-methylpyridin-3-yl)-6-(4-(2-(((R)-tetrahydrofuran-3-yl)oxy)phenyl)piperidin-1-yl)-2-azaspiro[3.4]octane] |
